Measured values taken from the supplement of paper PMC10307832.

Assays:
Test in all cases: relative viability (nuclei count vs DMSO), 5 days (fraction); higher = more cells survive
NCI-H1993 = tested on: NCI-H1993
How it was run: (§1)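 Lung cancer cell lines in 1536-well plates were dosed by pin tool the day after seeding, either with one drug alone or with a fixed anchor-drug dose plus five library-drug doses (not always all listed) in √10 steps. After 5 days, cells were fixed and their nuclei stained in one step (final 0.05% Triton X-100, 1% formaldehyde, 1 ug/ml Hoechst), then counted on 4× images. Relative viability is the nuclei count in treated wells divided by that in vehicle wells. Values are medians of duplicate plates.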

LOU-NH91 = tested on: LOU-NH91
How it was run: as §1

NCI-H596 = tested on: NCI-H596
How it was run: as §1

NCI-H2347 = tested on: NCI-H2347
How it was run: as §1

BEN = tested on: BEN
How it was run: as §1

NCI-H2126 = tested on: NCI-H2126
How it was run: as §1

NCI-H441 = tested on: NCI-H441
How it was run: as §1

HCC-44 = tested on: HCC-44
How it was run: as §1

EMC-BAC-2 = tested on: EMC-BAC-2
How it was run: as §1

NCI-H2087 = tested on: NCI-H2087
How it was run: as §1

NCI-H2023 = tested on: NCI-H2023
How it was run: as §1

LCLC-103H = tested on: LCLC-103H
How it was run: as §1

NCI-H23 = tested on: NCI-H23
How it was run: as §1

201T = tested on: 201T
How it was run: as §1

NCI-H3122 = tested on: NCI-H3122
How it was run: as §1

NCI-H838 = tested on: NCI-H838
How it was run: as §1

HARA = tested on: HARA
How it was run: as §1

NCI-H522 = tested on: NCI-H522
How it was run: as §1

NCI-H647 = tested on: NCI-H647
How it was run: as §1

NCI-H650 = tested on: NCI-H650
How it was run: as §1

NCI-H1395 = tested on: NCI-H1395
How it was run: as §1

NCI-H727 = tested on: NCI-H727
How it was run: as §1

For `Nc1ccn([C@@H]2O[C@H](CO)[C@@H](O)[C@@H]2O)c(=O)n1` [Cytarabine] + CCNC(=O)c1noc(-c2cc(C(C)C)c(O)cc2O)c1-c1ccc(CN2CCOCC2)cc1 [Luminespib] (partner 0.01 µM), the relative viability (NCI-H1993; first compound 0.005 µM) was 0.964, the relative viability (NCI-H1993; first compound 0.01581 µM) was 0.706 and the relative viability (NCI-H1993; first compound 0.05 µM) was 0.695. For the same compound, the relative viability (NCI-H1993; first compound 0.1581 µM) was 0.512, the relative viability (NCI-H1993; first compound 0.5 µM) was 0.525 and the relative viability (LOU-NH91; first compound 0.005 µM) was 0.362. It also gave a relative viability (LOU-NH91; first compound 0.01581 µM) of 0.361, a relative viability (LOU-NH91; first compound 0.05 µM) of 0.321 and a relative viability (LOU-NH91; first compound 0.1581 µM) of 0.316. It also gave a relative viability (LOU-NH91; first compound 0.5 µM) of 0.317, a relative viability (NCI-H596; first compound 0.005 µM) of 0.933 and a relative viability (NCI-H596; first compound 0.01581 µM) of 0.841. It also gave a relative viability (NCI-H596; first compound 0.05 µM) of 0.685, a relative viability (NCI-H596; first compound 0.1581 µM) of 0.548 and a relative viability (NCI-H596; first compound 0.5 µM) of 0.388. It also gave a relative viability (NCI-H2347; first compound 0.005 µM) of 0.284, a relative viability (NCI-H2347; first compound 0.01581 µM) of 0.402 and a relative viability (NCI-H2347; first compound 0.05 µM) of 0.39. For the same compound, the relative viability (NCI-H2347; first compound 0.1581 µM) was 0.255, the relative viability (NCI-H2347; first compound 0.5 µM) was 0.411 and the relative viability (BEN; first compound 0.005 µM) was 0.178. The relative viability (BEN; first compound 0.01581 µM) was 0.324, the relative viability (BEN; first compound 0.05 µM) was 0.247 and the relative viability (BEN; first compound 0.1581 µM) was 0.178. It also gave a relative viability (BEN; first compound 0.5 µM) of 0.122, a relative viability (NCI-H2126; first compound 0.005 µM) of 0.789 and a relative viability (NCI-H2126; first compound 0.01581 µM) of 0.86. It also gave a relative viability (NCI-H2126; first compound 0.05 µM) of 0.671, a relative viability (NCI-H2126; first compound 0.1581 µM) of 0.53 and a relative viability (NCI-H2126; first compound 0.5 µM) of 0.427. For the same compound, the relative viability (NCI-H441; first compound 0.005 µM) was 0.283, the relative viability (NCI-H441; first compound 0.01581 µM) was 0.252 and the relative viability (NCI-H441; first compound 0.05 µM) was 0.354. It also gave a relative viability (NCI-H441; first compound 0.1581 µM) of 0.266, a relative viability (NCI-H441; first compound 0.5 µM) of 0.271 and a relative viability (HCC-44; first compound 0.005 µM) of 0.949. The relative viability (HCC-44; first compound 0.01581 µM) was 1.05, the relative viability (HCC-44; first compound 0.05 µM) was 0.403 and the relative viability (HCC-44; first compound 0.1581 µM) was 0.257. It also gave a relative viability (HCC-44; first compound 0.5 µM) of 0.185, a relative viability (EMC-BAC-2; first compound 0.005 µM) of 0.885 and a relative viability (EMC-BAC-2; first compound 0.01581 µM) of 0.742. It also gave a relative viability (EMC-BAC-2; first compound 0.05 µM) of 0.346, a relative viability (EMC-BAC-2; first compound 0.1581 µM) of 0.259 and a relative viability (EMC-BAC-2; first compound 0.5 µM) of 0.244. It also gave a relative viability (NCI-H2087; first compound 0.005 µM) of 0.151, a relative viability (NCI-H2087; first compound 0.01581 µM) of 0.134 and a relative viability (NCI-H2087; first compound 0.05 µM) of 0.169. The relative viability (NCI-H2087; first compound 0.1581 µM) was 0.151, the relative viability (NCI-H2087; first compound 0.5 µM) was 0.134 and the relative viability (NCI-H2023; first compound 0.005 µM) was 0.604. The relative viability (NCI-H2023; first compound 0.01581 µM) was 0.235, the relative viability (NCI-H2023; first compound 0.05 µM) was 0.19 and the relative viability (NCI-H2023; first compound 0.1581 µM) was 0.0889. For the same compound, the relative viability (NCI-H2023; first compound 0.5 µM) was 0.0897, the relative viability (LCLC-103H; first compound 0.005 µM) was 0.96 and the relative viability (LCLC-103H; first compound 0.01581 µM) was 1.05. The relative viability (LCLC-103H; first compound 0.05 µM) was 1.03, the relative viability (LCLC-103H; first compound 0.1581 µM) was 0.909 and the relative viability (LCLC-103H; first compound 0.5 µM) was 0.947. The relative viability (NCI-H23; first compound 0.005 µM) was 0.179, the relative viability (NCI-H23; first compound 0.01581 µM) was 0.192 and the relative viability (NCI-H23; first compound 0.05 µM) was 0.197. It also gave a relative viability (NCI-H23; first compound 0.1581 µM) of 0.199, a relative viability (NCI-H23; first compound 0.5 µM) of 0.188 and a relative viability (201T; first compound 0.005 µM) of 1.09. The relative viability (201T; first compound 0.01581 µM) was 1.12, the relative viability (201T; first compound 0.05 µM) was 1.14 and the relative viability (201T; first compound 0.1581 µM) was 0.982. For the same compound, the relative viability (201T; first compound 0.5 µM) was 0.974, the relative viability (NCI-H3122; first compound 0.005 µM) was 0.0849 and the relative viability (NCI-H3122; first compound 0.01581 µM) was 0.0661. For the same compound, the relative viability (NCI-H3122; first compound 0.05 µM) was 0.0881, the relative viability (NCI-H3122; first compound 0.1581 µM) was 0.0776 and the relative viability (NCI-H3122; first compound 0.5 µM) was 0.0754. For the same compound, the relative viability (NCI-H838; first compound 0.005 µM) was 0.234, the relative viability (NCI-H838; first compound 0.01581 µM) was 0.3 and the relative viability (NCI-H838; first compound 0.05 µM) was 0.303. It also gave a relative viability (NCI-H838; first compound 0.1581 µM) of 0.186, a relative viability (NCI-H838; first compound 0.5 µM) of 0.167 and a relative viability (HARA; first compound 0.005 µM) of 0.898. The relative viability (HARA; first compound 0.01581 µM) was 0.303, the relative viability (HARA; first compound 0.05 µM) was 0.27 and the relative viability (HARA; first compound 0.1581 µM) was 0.1. The relative viability (HARA; first compound 0.5 µM) was 0.0906, the relative viability (NCI-H522; first compound 0.005 µM) was 1.09 and the relative viability (NCI-H522; first compound 0.01581 µM) was 0.953. For the same compound, the relative viability (NCI-H522; first compound 0.05 µM) was 0.968, the relative viability (NCI-H522; first compound 0.1581 µM) was 0.422 and the relative viability (NCI-H522; first compound 0.5 µM) was 0.438. For the same compound, the relative viability (NCI-H647; first compound 0.005 µM) was 0.146, the relative viability (NCI-H647; first compound 0.01581 µM) was 0.111 and the relative viability (NCI-H647; first compound 0.05 µM) was 0.112. For the same compound, the relative viability (NCI-H647; first compound 0.1581 µM) was 0.0665, the relative viability (NCI-H647; first compound 0.5 µM) was 0.0757 and the relative viability (NCI-H650; first compound 0.005 µM) was 0.606. The relative viability (NCI-H650; first compound 0.01581 µM) was 0.485, the relative viability (NCI-H650; first compound 0.05 µM) was 0.253 and the relative viability (NCI-H650; first compound 0.1581 µM) was 0.187. It also gave a relative viability (NCI-H650; first compound 0.5 µM) of 0.17, a relative viability (NCI-H1395; first compound 0.005 µM) of 0.544 and a relative viability (NCI-H1395; first compound 0.01581 µM) of 0.61. For the same compound, the relative viability (NCI-H1395; first compound 0.05 µM) was 0.437, the relative viability (NCI-H1395; first compound 0.1581 µM) was 0.366 and the relative viability (NCI-H1395; first compound 0.5 µM) was 0.346. For the same compound, the relative viability (NCI-H727; first compound 0.005 µM) was 0.22, the relative viability (NCI-H727; first compound 0.01581 µM) was 0.527 and the relative viability (NCI-H727; first compound 0.05 µM) was 0.475. It also gave a relative viability (NCI-H727; first compound 0.1581 µM) of 0.341 and a relative viability (NCI-H727; first compound 0.5 µM) of 0.309.
